Counter-ions that a name gives are not always drawn. Like-named read-outs stand apart in the source and are kept apart here.
Tests used:
[1] = system: Cladosporium cucumerinum; assay: melanin biosynthesis inhibition screen, disk diffusion assay on solidified culture; type: cell-based; conditions: for Observation: inhibits, radius cleared: growth inhibition zone
Protocol: Potato dextrose medium (PDM) for the screening test is prepared by melting
The mixture is autoclaved as 150 ml aliquots at 121°C for 25 minutes.
A chloramphenicol stock solution is prepared to contain 15 mg chloramphenicol per mL absolute ethanol and is stored at -20°C.
Conidia from Cladosporium cucumerinum, 10^7/mL in 0.03% Tween 20™, retain their viability for at least 12 weeks of storage in 1.8 ml cryovials at -85°C. Inoculum for running the screen are raised once every three months and stored without a cryoprotectant at the working concentration of 10^7 conidia/mL.
Fresh inoculum suspensions are prepared from conidial suspensions stored at -85°C. A cryovial is thawed by hand-heat, and 200 uL spread on the surface of PDA in 9 cm Petri dishes. Plates are placed in a resin box (to prevent fungal escape) and incubated at room temperature, 40 cm below laboratory fluorescent lights. Seven days later conidia are collected. Five mL of 0.03% Tween 20™ is added to each plate, and the conidia are released by rubbing the mycelium with a glass rod. The suspension is passed through a layer of sterile Miracloth™ and the concentration adjusted to 10^7 conidia/mL in 0.03% Tween 20™ using a haemocytometer. Aliquots of 1 mL are dispensed into cryovials and placed in a polystyrene holder to freeze slowly to -85°C.
For the test, 150 mL of PDM is cooled to 35°C, and 0.1 mL of chloramphenicol stock solution is added by gentle swirling. A vial of C. cucumerinum conidial suspension (10^7 conidia/ml in Tween 20™) thawed with hand-heat is mixed into the growth medium using gentle swirling. The mixture is poured immediately into a Biotray, and the agar is allowed to solidify.
Test compounds are applied to 0.63 cm (¼ inch) filter disks. Each test includes a positive control, 200 ng tricyclazole in 20% dimethyl sulphoxide (DMSO). The plate is incubated at room-temperature (∼23°C) 40 cm below laboratory fluorescent lights. The plate is read 40 hours later. […] The Biotrays are autoclaved before disposal.
The compounds are applied as 20 ul droplets from a 1 mg/ml stock solution.

[2] = system: wild-type strain M. grisea
[3] = C. cucumerinum Antibiotic Panel, effect on growth and pigmentation in words, screen of Example 1
[4] = Antifungal Panel, 20 ul droplets from a 1 mg/ml stock solution on filter disk, read 40 hours later
[5] = C. cucumerinum Antibiotic Panel, screen of Example 1

CC[C@H]1OC(=O)C[C@@H](O)[C@H](C)[C@@H](O[C@@H]2O[C@H](C)[C@@H](O[C@H]3C[C@@](C)(O)[C@@H](O)[C@H](C)O3)[C@H](N(C)C)[C@H]2O)[C@@H](CC=O)C[C@@H](C)C(=O)/C=C/C(C)=C/[C@@H]1CO[C@@H]1O[C@H](C)[C@@H](O)[C@@H](OC)[C@H]1OC [Tylosin Tartrate]
Observation [1, 3]: no effect on growth or pigmentation

CN[C@H](CC(C)C)C(=O)N[C@H]1C(=O)N[C@@H](CC(N)=O)C(=O)N[C@H]2C(=O)N[C@H]3C(=O)N[C@H](C(=O)N[C@H](C(=O)O)c4cc(O)cc(O)c4-c4cc3ccc4O)[C@H](O)c3ccc(c(Cl)c3)Oc3cc2cc(c3O[C@@H]2O[C@H](CO)[C@@H](O)[C@H](O)[C@H]2O[C@H]2C[C@](C)(N)[C@H](O)[C@H](C)O2)Oc2ccc(cc2Cl)[C@H]1O [Vancomycin HCl]
Observation [1]: no effect on growth or pigmentation

Cc1cccc2sc3nncn3c12 [tricyclazole]
inhibition of penetration ([2]; 15 ng in 1.5% acetone, onion epidermal pieces, 25°C for 24 hours): 100%
penetration of freshly harvested onion epidermis by wild-type M. grisea ([2]; in the presence of the inhibitor, about 90 to 95% of germinating wild-type conidia penetrate without it): no penetration

Antimycin
Observation: inhibits, radius cleared [1, 4]: inhibits, 13 mm radius cleared

Aureofungin
Observation [1, 3]: no effect on growth or pigmentation

Azalomycin
Observation: inhibits, radius cleared [1, 5]: inhibits, 14 mm radius cleared

Dermostatin
Observation [1, 3]: no effect on growth or pigmentation

Flavofungin
Observation [1, 3]: no effect on growth or pigmentation

Hamycin
Observation [1, 3]: no effect on growth or pigmentation

Maneb
Observation ([1]; Antifungal Panel, effect on growth and pigmentation in words, 20 ul droplets from a 1 mg/ml stock solution on filter disk, read 40 hours later): no effect on pigmentation, growth thin

Monicamycin
Observation [1, 3]: no effect on growth or pigmentation

Neohumidin
Observation [1, 3]: no effect on growth or pigmentation

Neomycin Sulfate
Observation [1, 3]: no effect on growth or pigmentation

Noconazole
Observation: inhibits, radius cleared [1, 4]: inhibits, 8 mm radius cleared

Protomycin/Streptimidone
Observation [1, 3]: no effect on growth or pigmentation

Ristocedin
Observation [1, 3]: no effect on growth or pigmentation

Sulfocidin
Observation: fungal thinning, radius [1, 5]: fungal thinning, 5 mm radius

Tetrahydro Spiramycin Base
Observation [1, 3]: no effect on growth or pigmentation

Thioaurin
Observation: inhibits, radius cleared [1, 5]: inhibits, 16 mm radius cleared

Trichomycin
Observation [1, 3]: no effect on growth or pigmentation

Tunicamycin
Observation: inhibits, radius cleared [1, 4]: inhibits, 22 mm radius cleared

— EP0635577B1, “Screen for inhibitors of melanin biosynthesis” (BASF AKTIENGESELLSCHAFT, priority 1993, dated 1995)
